Data from ChEMBL document CHEMBL1201862, “PubChem BioAssay data set” (2004).
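Dose response: 5 concentrations. Exposure: 48 h. Format: 96-well plates. Endpoint: linear interpolation; highest concentration if not reached. Here, GI50 denotes the concentration required for 50% inhibition of growth.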 Active and inactive are the calls of the source. No stated cut-off is given here; in the data, active = GI50 up to about 1.1 µM and inactive = higher.

Legend:
Assay in all cases: NCI-60 cell line screen, 48 h
HCC 2998 = tested on: HCC 2998
HCT-15 = tested on: HCT-15
HL-60 = tested on: HL-60
HOP-62 = tested on: HOP-62
IGROV-1 = tested on: IGROV-1
K562 = tested on: K562
MDA-MB-231 = tested on: MDA-MB-231
MDA-N = tested on: MDA-N
NCI-H23 = tested on: NCI-H23
NCI/ADR-RES = tested on: NCI/ADR-RES
OVCAR-5 = tested on: OVCAR-5
RPMI-8226 = tested on: RPMI-8226
SF-539 = tested on: SF-539
SK-MEL-2 = tested on: SK-MEL-2
SK-OV-3 = tested on: SK-OV-3
SW-620 = tested on: SW-620
U-251 = tested on: U-251
UO-31 = tested on: UO-31
NCI-H226 = tested on: NCI-H226
A498 = tested on: A498

Compound | GI50 (HCC 2998) | GI50 (HCT-15) [µM] | GI50 (HL-60) | GI50 (HOP-62) | GI50 (IGROV-1) | GI50 (K562) | GI50 (MDA-MB-231) | GI50 (MDA-N) | GI50 (NCI-H23) | GI50 (NCI/ADR-RES) | GI50 (OVCAR-5) | GI50 (RPMI-8226) | GI50 (SF-539) | GI50 (SK-MEL-2) | GI50 (SK-OV-3) | GI50 (SW-620) | GI50 (U-251) | GI50 (UO-31) | GI50 (NCI-H226) | GI50 (A498)
O=C(CCN1CCOCC1)Nc1ccc2sc3ccccc3c(=O)c2n1 | 33.9 µM (inactive) | 33.9 | > 100 µM (inactive) | 44.7 µM (inactive) | 30.1 µM (inactive) | 8.49 µM (inactive) | 35.6 µM (inactive) | 23.3 µM (inactive) | 49.1 µM (inactive) | 43.4 µM (inactive) | > 100 µM (inactive) | 28 µM (inactive) | 60.5 µM (inactive) | 64 µM (inactive) | 47.6 µM (inactive) | 27.4 µM (inactive) | 42.9 µM (inactive) | 25.8 µM (inactive) |  | 
N#CCCN(CCCN(C(=O)Nc1ccccc1)c1ccccc1)C(=O)Nc1ccccc1 | > 100 µM (inactive) | > 100 | 27.2 µM (inactive) | > 100 µM (inactive) | > 100 µM (inactive) | 54.3 µM (inactive) | > 100 µM (inactive) | > 100 µM (inactive) | 61.7 µM (inactive) | > 100 µM (inactive) | > 100 µM (inactive) | 53 µM (inactive) | > 100 µM (inactive) | > 100 µM (inactive) | > 100 µM (inactive) | > 100 µM (inactive) | > 100 µM (inactive) | 58.3 µM (inactive) | > 100 µM (inactive) | 
CC(C)(C)n1c(=O)n(C(=O)C(Cl)(Cl)Cl)n(C(=O)C(Cl)(Cl)Cl)c1=O | > 100 µM (inactive) | > 100 | > 100 µM (inactive) | > 100 µM (inactive) | > 100 µM (inactive) | > 100 µM (inactive) | > 100 µM (inactive) | > 100 µM (inactive) | > 100 µM (inactive) | > 100 µM (inactive) | > 100 µM (inactive) | > 100 µM (inactive) | > 100 µM (inactive) | > 100 µM (inactive) | > 100 µM (inactive) | > 100 µM (inactive) | > 100 µM (inactive) | > 100 µM (inactive) | > 100 µM (inactive) | 
O=C1CCC2(CC1)Cc1ccccc1C2O (stereo not drawn) | > 100 µM (inactive) | > 100 | > 100 µM (inactive) | > 100 µM (inactive) | > 100 µM (inactive) | > 100 µM (inactive) | > 100 µM (inactive) | > 100 µM (inactive) | > 100 µM (inactive) | > 100 µM (inactive) | > 100 µM (inactive) |  | > 100 µM (inactive) | > 100 µM (inactive) | > 100 µM (inactive) | > 100 µM (inactive) | > 100 µM (inactive) | > 100 µM (inactive) | > 100 µM (inactive) | 
COc1cc(S(=O)(=O)Nc2ccc(-c3csc(/N=C\c4ccccc4)n3)cc2)ccc1Cl |  | > 100 | 25.6 µM (inactive) | 41.4 µM (inactive) | > 100 µM (inactive) | 32.2 µM (inactive) | 37.2 µM (inactive) | 39 µM (inactive) | 60.7 µM (inactive) | > 100 µM (inactive) | > 100 µM (inactive) | 32 µM (inactive) | 35.1 µM (inactive) | 25.2 µM (inactive) | > 100 µM (inactive) | 33.5 µM (inactive) |  | 74.3 µM (inactive) | 75.2 µM (inactive) | 37.5 µM (inactive)
CCCCC(C(=O)N/N=C/c1ccc([N+](=O)[O-])o1)C(=O)N/N=C/c1ccc([N+](=O)[O-])o1 |  | 2.26 | 2.52 µM (inactive) | 13.1 µM (inactive) | 2.17 µM (inactive) | 3.28 µM (inactive) | 3.81 µM (inactive) | 3.53 µM (inactive) | 2.02 µM (inactive) | 2.64 µM (inactive) | 2.81 µM (inactive) | 0.682 µM (active) | 10.1 µM (inactive) | 7.19 µM (inactive) | 21.1 µM (inactive) | 2.54 µM (inactive) | 2.74 µM (inactive) | 1.99 µM (inactive) | 2.37 µM (inactive) | 19.8 µM (inactive)
Nc1ccc(-c2cssc2=S)cc1 | 29.2 µM (inactive) | 45.5 | 18.6 µM (inactive) | 42.1 µM (inactive) | 50.7 µM (inactive) | 3.21 µM (inactive) | 39.3 µM (inactive) | 30.4 µM (inactive) |  | 41.9 µM (inactive) | > 100 µM (inactive) | 0.836 µM (active) | 52.8 µM (inactive) | 27.1 µM (inactive) | 44.6 µM (inactive) | 54.8 µM (inactive) | 40.7 µM (inactive) | 35.9 µM (inactive) | 56.5 µM (inactive) | 
C#CCn1c(=O)ccn(/C(=C/C(=O)OCC)C(=O)OCC)c1=O |  | 1.06 | 3.44 µM (inactive) | 13 µM (inactive) | 4.21 µM (inactive) | 3.36 µM (inactive) | 14.8 µM (inactive) | 17.2 µM (inactive) | 11.9 µM (inactive) | 3.7 µM (inactive) | 7.13 µM (inactive) | 2.9 µM (inactive) | 1.48 µM (inactive) | 15.2 µM (inactive) | 35.2 µM (inactive) | 1.86 µM (inactive) | 14.2 µM (inactive) | 12.6 µM (inactive) | 18.6 µM (inactive) | 15.1 µM (inactive)
C/C=C/CC(C(=O)OCC)(N(C)C(=O)OC(C)(C)C)S(=O)(=O)c1ccc(C)cc1 (stereo not drawn) |  | 61.9 | 45.3 µM (inactive) | > 100 µM (inactive) | 68.7 µM (inactive) | 70.5 µM (inactive) | > 100 µM (inactive) | 22.1 µM (inactive) | > 100 µM (inactive) | 69.2 µM (inactive) | > 100 µM (inactive) | 52.8 µM (inactive) | > 100 µM (inactive) | 51.6 µM (inactive) |  | 56.5 µM (inactive) | 81.5 µM (inactive) | > 100 µM (inactive) | > 100 µM (inactive) | > 100 µM (inactive)
CCC1(O)CC(OC2CC(N(C)C)C(OC3CC(O)C(OC4OC(C)C(=O)C=C4N)C(C)O3)C(C)O2)c2c(cc3c(c2O)C(=O)c2c(O)cccc2C3=O)C1C(=O)OC (stereo not drawn) | 0.0153 µM (active) | 0.241 | 0.0177 µM (active) | 0.0184 µM (active) | 0.00302 µM (active) | < 0.001 µM (active) | 0.29 µM (active) | 0.00682 µM (active) | 0.104 µM (active) | 1.25 µM (inactive) | 0.0678 µM (active) | 0.00153 µM (active) | 0.0501 µM (active) | 0.0221 µM (active) | 0.0518 µM (active) | < 0.001 µM (active) | 0.00385 µM (active) | 0.167 µM (active) | 0.115 µM (active) | 
C=C(C)C1CC=C(C)C(=O)C1 (stereo not drawn) [CARVONE] | > 100 µM (inactive) | > 100 | > 100 µM (inactive) | > 100 µM (inactive) | > 100 µM (inactive) | > 100 µM (inactive) | > 100 µM (inactive) | > 100 µM (inactive) | > 100 µM (inactive) | > 100 µM (inactive) | > 100 µM (inactive) | > 100 µM (inactive) | > 100 µM (inactive) | > 100 µM (inactive) |  | > 100 µM (inactive) | > 100 µM (inactive) | > 100 µM (inactive) | > 100 µM (inactive) | 
